Data reported in the NIST ThermoML archive (doi:10.1021/je800895q).

CCCCn1cc[n+](C)c1.F[P-](F)(F)(F)(F)F [1-butyl-3-methylimidazolium hexafluorophosphate]
Conditions	surface tension liquid-gas [mN/m]
287.6 K	44.41
288.14 K	44.47
292.88 K	44.11
292.99 K	44.28
297.86 K	44.03
298.34 K	43.82
303.33 K	43.64
303.37 K	43.51
307.96 K	43.24
308.21 K	43.46
312.44 K	43.13
312.88 K	42.9
317.86 K	42.58
318.23 K	42.75
322.81 K	42.21
322.98 K	42.45
327.89 K	42.14
327.91 K	41.94
332.84 K	41.86
333.31 K	41.63
337.59 K	41.57
337.97 K	41.37
342.86 K	41.05
343.06 K	41.34
348.16 K	40.95
348.34 K	40.8
352.78 K	40.47
352.99 K	40.75

CCCCCCn1cc[n+](C)c1.F[P-](F)(F)(F)(F)F [1-hexyl-3-methylimidazolium hexafluorophosphate]
Conditions	surface tension liquid-gas [mN/m]
284.3 K	39.12
284.36 K	39.1
288.16 K	38.86
288.25 K	38.81
293.48 K	38.6
293.56 K	38.7
298.97 K	38.25
299.02 K	38.21
303.58 K	37.99
303.67 K	37.89
308.56 K	37.61
308.58 K	37.78
313.45 K	37.26
313.53 K	37.3
318.45 K	36.88
318.5 K	36.94
323.12 K	36.67
323.16 K	36.78
327.89 K	36.28
327.92 K	36.29
333.78 K	36.05
333.82 K	35.99
337.92 K	35.68
337.94 K	35.74
343.05 K	35.48
343.09 K	35.29
347.67 K	35.21
347.75 K	35.09
353.68 K	34.7
353.76 K	34.87

CCCn1cc[n+](C)c1.F[P-](F)(F)(F)(F)F [1-methyl-3-propylimidazolium hexafluorophosphate]
Conditions	surface tension liquid-gas [mN/m]
318.33 K	46.41
318.39 K	46.75
323.12 K	46.09
323.13 K	46.33
328.13 K	45.76
328.14 K	45.93
332.59 K	45.52
332.63 K	45.2
333.28 K	45.82
338.14 K	45.65
338.21 K	45.14
343.25 K	44.83
343.26 K	44.86
348.02 K	44.66
348.08 K	44.54
352 K	44.38
352.08 K	44.31

CCCCCCCC[n+]1ccn(C)c1.F[P-](F)(F)(F)(F)F [1-octyl-3-methylimidazolium hexafluorophosphate]
Conditions	surface tension liquid-gas [mN/m]
283.91 K	34.75
283.92 K	34.62
287.88 K	34.48
293.41 K	34.14
293.42 K	34.36
298.13 K	33.95
302.95 K	33.56
303 K	33.48
308.1 K	33.27
308.14 K	33.32
313.47 K	32.98
313.51 K	33.16
318.02 K	32.9
318.04 K	32.8
322.73 K	32.52
322.79 K	32.46
327.97 K	32.12
327.98 K	32.25
332.98 K	32.02
333.05 K	31.93
337.93 K	31.81
337.95 K	31.68
342.84 K	31.46
343 K	31.53
348.12 K	31.26
348.18 K	31.15
353.56 K	30.94
353.62 K	30.83
